These results are taken from patent publication US10383866B2, “Alkyl dihydroquinoline sulfonamide compounds” (AMGEN INC., priority 2015, dated 2019).

The term pIC50 denotes −log10 of the IC50, conventionally taken in molar units.

pIC50: −log10 of the molar value.

Series [1] deals with T1, hNav1.7 (Homo sapiens, UniProt Q15858).
T1 construct: expressed in transfected cells; host or cells: HEK 293
The series can be described thus: Nav 1.7 IWQ In Vitro Assay (IonWorks Quattro population patch-clamp). The format is cell-based. The settings on record: HEK 293 cells stably transfected with Nav 1.7, 26th pulse to -20 mV. On the procedure: Nav 1.7 or Nav 1.5 IWQ In Vitro Assay
HEK 293 Cells stably transfected with either Nav 1.7 or Nav 1.5 were recorded in population patch-clamp mode with the IonWorks® Quattro automated electrophysiology system in accordance with the manufacturer's specifications (Molecular Devices, LLC, Sunnyvale, Calif.). Sodium channel currents were measured in response to a train of depolarizations that induced successively greater inactivation.
Cells were held at −110 mV for three seconds (Nav 1.7) or half a second (Nav 1.5) from a holding voltage of −15 mV, then put through a series of 26 pulses of 150 msec duration to −20 mV at a frequency of 5 Hz. Cells were then left unclamped for a period of 3 to 8 minutes while a single concentration of test compound was added. Cells were then reclamped and put through the same voltage protocol. Current at the end of the 26th pulse to −20 mV was subtracted from the peak current evoked by the 26th pulse to −20 mV to correct for leak current. Percent block was calculated for each concentration in duplicate, and IC50 curves were fitted to percent block as a function of concentration.

A short description of series [2]: HLM in vitro. The format is in vitro ADME, human.
Series [3] deals with T2, human Nav1.7 (Homo sapiens, UniProt Q15858).
T2 construct: expressed in transfected cells; host or cells: HEK 293
Briefly: Nav 1.7 In Vitro PX Assay (PatchXpress whole cell voltage clamp, partially inactivated state). Type of series: cell-based. The settings on record: HEK 293 cells stably transfected with human Nav1.7, holding potential yielding 20 to 50% inactivation, read-out: hNav1.7 PX IC50. On the procedure: Nav 1.7 In Vitro PX Assay
HEK 293 cells stably transfected with human Nav1.7 were recorded in whole cell voltage clamp mode with the PatchXpress automated electrophysiology system (Molecular Devices, LLC, Sunnyvale, Calif.). Compound effects were measured on a partially inactivated state of the sodium channel Cells were clamped to a holding potential yielding 20 to 50% inactivation. To elicit sodium current, channels were activated by pulsing to −10 mV for 20 msec. This voltage protocol was repeated at a rate of 0.1 Hz throughout the experiment. A single concentration of test compound was applied to cells for a duration of 3 minutes. Peak sodium current was measured at the end of the compound addition period to determine percent inhibition. Three to five cells were tested per concentration, and IC50 curves were fitted to percent inhibition as a function of concentration.

Series [4] has as its target T3, human PXR (Homo sapiens, UniProt O75469).
T3 sequence (O75469 1-434): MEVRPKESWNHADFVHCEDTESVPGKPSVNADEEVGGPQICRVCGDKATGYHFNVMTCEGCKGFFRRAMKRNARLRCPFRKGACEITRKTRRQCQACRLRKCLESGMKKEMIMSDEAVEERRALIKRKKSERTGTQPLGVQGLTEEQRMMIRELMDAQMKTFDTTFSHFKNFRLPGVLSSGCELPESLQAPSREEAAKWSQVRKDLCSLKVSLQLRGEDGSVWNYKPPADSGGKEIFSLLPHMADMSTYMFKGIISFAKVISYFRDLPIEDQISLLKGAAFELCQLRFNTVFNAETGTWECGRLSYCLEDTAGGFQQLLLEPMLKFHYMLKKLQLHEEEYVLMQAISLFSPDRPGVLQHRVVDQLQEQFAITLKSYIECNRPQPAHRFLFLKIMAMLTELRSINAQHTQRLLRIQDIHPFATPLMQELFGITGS
The series can be described thus: Human PXR @ 2 uM POC. The format is in vitro ADME.

T1 sequence (Q15858 whole entry): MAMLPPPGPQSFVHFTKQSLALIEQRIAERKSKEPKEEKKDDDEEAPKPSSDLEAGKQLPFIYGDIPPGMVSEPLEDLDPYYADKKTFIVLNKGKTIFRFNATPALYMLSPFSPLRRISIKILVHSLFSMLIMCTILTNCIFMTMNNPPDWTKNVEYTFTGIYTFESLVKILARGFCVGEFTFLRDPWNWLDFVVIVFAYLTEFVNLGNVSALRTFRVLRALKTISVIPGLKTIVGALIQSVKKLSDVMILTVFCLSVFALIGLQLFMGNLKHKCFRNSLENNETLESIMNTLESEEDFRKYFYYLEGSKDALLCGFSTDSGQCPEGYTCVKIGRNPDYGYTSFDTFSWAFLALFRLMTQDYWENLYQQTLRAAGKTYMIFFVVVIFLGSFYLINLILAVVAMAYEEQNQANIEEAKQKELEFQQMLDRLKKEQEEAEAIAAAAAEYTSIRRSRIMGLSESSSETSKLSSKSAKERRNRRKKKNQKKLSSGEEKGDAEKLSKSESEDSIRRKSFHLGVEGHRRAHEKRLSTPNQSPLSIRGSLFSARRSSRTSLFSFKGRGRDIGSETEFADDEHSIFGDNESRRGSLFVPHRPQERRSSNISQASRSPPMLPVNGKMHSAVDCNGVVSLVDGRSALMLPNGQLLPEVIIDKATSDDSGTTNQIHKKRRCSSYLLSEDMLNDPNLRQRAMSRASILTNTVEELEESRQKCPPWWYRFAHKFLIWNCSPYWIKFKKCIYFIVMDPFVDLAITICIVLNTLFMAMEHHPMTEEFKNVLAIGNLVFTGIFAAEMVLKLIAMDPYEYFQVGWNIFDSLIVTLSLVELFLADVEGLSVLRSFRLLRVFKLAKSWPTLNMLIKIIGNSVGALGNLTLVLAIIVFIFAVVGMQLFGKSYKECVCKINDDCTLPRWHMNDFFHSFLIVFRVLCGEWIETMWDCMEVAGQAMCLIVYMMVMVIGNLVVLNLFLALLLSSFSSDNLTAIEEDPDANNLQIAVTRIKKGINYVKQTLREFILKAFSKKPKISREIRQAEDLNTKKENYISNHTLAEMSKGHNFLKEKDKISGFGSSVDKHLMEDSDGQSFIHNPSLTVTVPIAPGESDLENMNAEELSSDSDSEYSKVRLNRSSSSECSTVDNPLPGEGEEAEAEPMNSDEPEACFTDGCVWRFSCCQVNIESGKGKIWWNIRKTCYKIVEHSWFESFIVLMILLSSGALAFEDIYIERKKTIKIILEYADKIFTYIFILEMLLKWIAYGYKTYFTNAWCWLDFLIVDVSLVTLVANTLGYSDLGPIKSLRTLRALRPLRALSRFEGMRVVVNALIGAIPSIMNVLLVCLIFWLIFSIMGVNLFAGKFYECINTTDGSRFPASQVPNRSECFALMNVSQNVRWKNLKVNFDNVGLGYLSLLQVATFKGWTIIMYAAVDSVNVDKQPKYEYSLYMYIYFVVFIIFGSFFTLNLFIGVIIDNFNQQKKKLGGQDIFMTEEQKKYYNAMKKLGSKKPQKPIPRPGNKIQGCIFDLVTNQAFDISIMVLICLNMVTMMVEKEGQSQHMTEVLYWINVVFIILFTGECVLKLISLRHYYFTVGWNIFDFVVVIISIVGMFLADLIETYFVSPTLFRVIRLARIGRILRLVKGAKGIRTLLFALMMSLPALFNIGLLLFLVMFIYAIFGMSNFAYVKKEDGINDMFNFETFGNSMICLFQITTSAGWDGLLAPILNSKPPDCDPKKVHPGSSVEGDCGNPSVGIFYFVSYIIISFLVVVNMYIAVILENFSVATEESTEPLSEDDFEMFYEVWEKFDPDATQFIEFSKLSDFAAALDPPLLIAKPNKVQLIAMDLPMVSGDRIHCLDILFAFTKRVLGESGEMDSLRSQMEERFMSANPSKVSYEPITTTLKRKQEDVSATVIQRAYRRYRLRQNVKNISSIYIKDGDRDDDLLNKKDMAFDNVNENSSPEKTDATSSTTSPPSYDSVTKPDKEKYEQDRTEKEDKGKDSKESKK
T2 sequence (Q15858 whole entry): as above

`COc1cc(CCC(F)(F)F)c(F)cc1-n1c(=O)ccc2cc(S(=O)(=O)Nc3ccon3)ccc21` (atropisomer, axis not shown; (P)) [Example 1, (P)-1-(5-fluoro-2-methoxy-4-(3,3,3-trifluoropropyl)phenyl)-N-(isoxazol-3-yl)-2-oxo-1,2-dihydroquinoline-6-sulfonamide]: the pIC50 in series [1] was 8.70; in series [3], 6.49. The HLM in vitro in series [2] is <14.0 [2] μL/(min · mg). Further, the “human PXR @ 2 uM POC S” value in series [4] is 0.22%.

For `COc1cc(CC(F)(F)F)c(F)cc1-n1c(=O)ccc2cc(S(=O)(=O)Nc3ccon3)ccc21` (racemic) [Example 6A, 1-(5-fluoro-2-methoxy-4-(2,2,2-trifluoroethyl)phenyl)-N-(isoxazol-3-yl)-2-oxo-1,2-dihydroquinoline-6-sulfonamide], the results for the pIC50 in series [1] and in series [3] were 8.75 and 6.50, respectively. This compound also registered an HLM in vitro in series [2] of less than 14.0 µL/min/mg. Besides, the “human PXR @ 2 uM POC S” value in series [4] was −1.12%.

As to `COc1cc(CCCC(F)(F)F)c(F)cc1-n1c(=O)ccc2cc(S(=O)(=O)Nc3ccon3)ccc21` (atropisomer, axis not shown; (P)) [Example 5, (P)-1-(5-fluoro-2-methoxy-4-(4,4,4-trifluorobutyl)phenyl)-N-(isoxazol-3-yl)-2-oxo-1,2-dihydroquinoline-6-sulfonamide], the results for the pIC50 in series [1] and in series [3] were 8.70 and 6.06, respectively. For the same compound, the HLM in vitro in series [2] is less than 14.0 µL/min/mg. The “human PXR @ 2 uM POC S” value in series [4] amounted to 1.87%.

In the case of `COc1cc(CCC(F)(F)F)c(F)cc1-n1c(=O)ccc2cc(S(=O)(=O)Nc3cccnn3)ccc21` (atropisomer, axis not shown; (P)) [Example 3, (P)-1-(5-fluoro-2-methoxy-4-(3,3,3-trifluoropropyl)phenyl)-2-oxo-N-(Pyridazin-3-yl)-1,2-dihydroquinoline-6-sulfonamide], the pIC50 in series [1] was 8.70; in series [3] it was 6.01. In series [2], this compound registered an HLM in vitro of less than 14.0 µL/min/mg. Further, the “human PXR @ 2 uM POC S” value in series [4] turned out to be 3.20%.

As to `COc1cc(C[C@@H](C)C(F)(F)F)c(F)cc1-n1c(=O)ccc2cc(S(=O)(=O)Nc3ccon3)ccc21` (racemic) [Example 4, (P)-1-(5-fluoro-2-methoxy-4-(3,3,3-trifluoro-2-methylpropyl)phenyl)-N-(isoxazol-3-yl)-2-oxo-1,2-dihydroquinoline-6-sulfonamide], the pIC50 in series [1] is 7.92; in series [3], 6.14. In series [2], this compound had an HLM in vitro of less than 14.0 µL/min/mg. For the same compound, the “human PXR @ 2 uM POC S” value in series [4] is −0.04%.

`COc1cc(CCC(F)(F)F)c(Cl)cc1-n1c(=O)ccc2cc(S(=O)(=O)Nc3ccon3)ccc21` (atropisomer, axis not shown; (P)) [Example 2, (P)-1-(5-chloro-2-methoxy-4-(3,3,3-trifluoropropyl)phenyl)-N-(isoxazol-3-yl)-2-oxo-1,2-dihydroquinoline-6-sulfonamide]: the negative logarithm of the IC50 (pIC50) is 8.30 in series [1] and 7.10 in series [3]. In series [2], the HLM in vitro is less than 14.0 µL/min/mg. Further, the “human PXR @ 2 uM POC S” value in series [4] came out at 2.38%.

As to `COc1cc(CC(F)(F)F)c(F)cc1-n1c(=O)ccc2cc(S(=O)(=O)Nc3ccon3)ccc21` (atropisomer, axis not shown; (P)) [Example 6B, (P)-1-(5-fluoro-2-methoxy-4-(2,2,2-trifluoroethyl)phenyl)-N-(isoxazol-3-yl)-2-oxo-1,2-dihydroquinoline-6-sulfonamide], the pIC50 in series [1] was 8.28; in series [3], 7.07. The same compound gave an HLM in vitro in series [2] of less than 14.0 µL/min/mg. Moreover, the “human PXR @ 2 uM POC S” value in series [4] is −2.42%.
